Laboratory results as given in patent US7816400B2 (The University of Hong Kong, priority 2007, dated 2010).
Read-outs that look alike come from different tables or passages of the source.

Key:
[1] = test system: human atrial myocytes; assay: Action potential in human atrial myocytes, perforated patch, current clamp; format: cell-based
From the text: Atrial cells were isolated from specimens of human right atrial appendage obtained from patients (56.1±4.7 years old) undergoing coronary artery bypass grafting. […] All patients were free from supraventricular tachyarrythmias, and the atria were grossly normal at the time of surgery. After excision, the samples were quickly immersed in oxygenated, normally Ca^2+-free cardioplegic solution for transport to the laboratory. Atrial myocytes were enzymatically dissociated as described previously (Tian et al., 2006; Gao et al., 2004). Briefly, the atrial tissue was minced, and gently agitated by continuous bubbling with 100% O2 in a Ca^2+-free Tyrode solution for 15 min (5 min at a time in fresh solutions), and then incubated for 50 min in a similar solution containing 150-200 U/ml collagenase (CLS II, Worthington Biochemical, Freehold, N.J., USA), 0.2 mg/ml protease (type XXIV, Sigma-Aldrich Chemical, St Louis, Mo., USA.) and 1 mg/ml bovine serum albumin (Sigma-Aldrich). After then, the chunks were re-incubated in a fresh enzyme solution of the same composition but no protease. The quantity and quality of isolated cells were monitored under a microscope. When the cell yield appeared optimal, the chunks were suspended in a high K medium containing (mM) 10 KCl, 120 K-glutamate, 10 KH2PO4, 1.8 MgSO4, 10 taurine, 10 HEPES, 0.5 EGTA, 20 glucose, 10 mannitol, pH was adjusted to 7.3 with KOH and gently blown with a pipette. The isolated myocytes were kept at room temperature in the medium at least 1 h before use.
A small aliquot of the solution containing the isolated cells was placed in an open perfusion chamber (1-ml) mounted on the stage of an inverted microscope. Myocytes were allowed to adhere to the bottom of the chamber for 5-10 min and were the superfused at 2-3 ml/min with Tyrode solution. Only quiescent rod-shaped cells with clear cross-striations were used. The studies were conducted at room temperature (21-22° C.) for current recording or 36° C. for action potential recording.
The whole-cell patch-clamp technique was used for electrophysiological recording. Borosilicate glass electrodes (1.2-mm OD) were pulled with a Brown-Flamming puller (model P-97, Sutter Instrument Co, Novato, Calif., USA) and had tip resistances of 2-3 MΩ when filled with pipette solution. […] A 3-M KCl-agar salt bridge was used as reference electrode. The tip potentials were compensated before the pipette touched the cell. After a giga-ohm seal was obtained, the cell membrane was ruptured by gentle suction to establish the whole-cell configuration. […] The series resistance (Rs) was 3-5 MΩ and was compensated by 50-70% to minimize voltage errors. Perforated patch configuration was used for recording action potential in human atrial cells and IKs in HEK 293 cells as described previously (Li et al., 2002b; Dong et al., 2006). Current signals were low-pass filtered at 5 kHz and stored on the hard disk of an IBM compatible computer.

[2] = target: T1, Kv1.5 (Homo sapiens, UniProt P22460); assay: Kv1.5 channel block in stably expressing HEK 293 cells; format: cell-based
T1 construct: expressed in transfected cells
Experimental: The established HEK 293 cell lines stably expressing the hERG channel gene, Kv1.5 (Tang et al., 2007), or recombinant human cardiac KCNQ1/KCNE1 channel current (IKs) (Dong et al., 2006) was maintained separately in Dulbecco's modified eagle medium (Invitrogen) supplemented with 10% fetal bovine serum and containing 400 μg/ml G418 (for hERG or Kv1.5 channels) or 100 μg/ml hygromycin (for IKs).
The whole-cell patch-clamp technique was used for electrophysiological recording. Borosilicate glass electrodes (1.2-mm OD) were pulled with a Brown-Flamming puller (model P-97, Sutter Instrument Co, Novato, Calif., USA) and had tip resistances of 2-3 MΩ when filled with pipette solution. Membrane currents were recorded in voltage-clamp mode using an EPC-9 amplifier and Pulse software (HEKA, Lambrecht, Germany). A 3-M KCl-agar salt bridge was used as reference electrode. The tip potentials were compensated before the pipette touched the cell. After a giga-ohm seal was obtained, the cell membrane was ruptured by gentle suction to establish the whole-cell configuration. The cell membrane capacitance (pF) was directly measured using the lock-in module of the Pulse software, and used for normalizing the current in individual cells. The series resistance (Rs) was 3-5 MΩ and was compensated by 50-70% to minimize voltage errors. Perforated patch configuration was used for recording action potential in human atrial cells and IKs in HEK 293 cells as described previously (Li et al., 2002b; Dong et al., 2006). Current signals were low-pass filtered at 5 kHz and stored on the hard disk of an IBM compatible computer.
Other derivatives/analogs studied have no effect or a week inhibitory effect on Kv1.5.

[3] = target: hERG channels (Homo sapiens, UniProt Q12809); assay: cell-based
[4] = test system: isolated rabbit hearts; assay: ECG (heart rate, QTc) in isolated hypokalemic rabbit hearts, Langendorff; settings: 10 μM, hypokalemic (3 mM K+) perfusion
Experimental: ECG was recorded with a Powerlab recording system via two electrodes placed respectively on base and apex of the heart.
The hearts were perfused using a hypokalemic (3 mM K^+) solution.

[5] = test system: anesthetized dogs; assay: In vivo electrophysiology (atrial ERP, QTc) in anesthetized dogs; design: species or system dog; settings: 5 mg/kg intraduodenal
Experimental: Adult mongrel dogs (12-15 kg) were anesthetized with pentobarbital (30 mg/kg i.v.), supplemented during the experiment when needed. The animal was intubated and ventilated with room air. Body temperature was maintained at 37-38° C. with a temperature control system. The left femoral vein was cannulated for maintenance of anesthesia and introducing the mono-phasic action potential (MAP) recording- and pacing-catheters (Boston Scientific Ltd) to the right atrium. The vagus nerves were isolated and divided in the neck. […] A left thoracotomy was performed in the fourth intercostal space, and the pericardium was incised to provide access to the left atrium for introducing the MAP catheter. The catheters were used for recording MAPs of right and left atria, respectively, and for measurement of effective refractory period (ERP). […] A ligation was made at the pylorus with a thick cotton thread to prevent the possible back flow of the duodenum content.
Following a 30-min equilibration period and measurement of atrial excitation threshold with 2-ms duration of stimuli, atrial ERP was determined using a train of 8 basic stimuli (S1, twice-diastolic threshold) followed by an identical premature stimulus (S2). The basic cycle lengths (BCL) of 200, 250 and 300 ms were applied in both right and left atria. S2 was initially delivered late in diastole in 5-ms decrements until a response was not elicited by the S2 indicated on the MAP recording. The ERP was defined as the longest S1-S2 interval failing a propagated response, and the procedure was repeated for three times for each measurement. MAP, ECG and blood pressure signals were continuously monitored and stored on an IBM compatible PC computer using a multiple channels data acquisition system (RM-6280C, Chengdu Instrument Ltd, Chendu, China).
The ERP measurement was then repeated every hour post drug administration for 6 hours. Excitation threshold of both right and left atria was verified before ERP each measurement. • 1.7.2.
The ERPs were determined in anesthetized dogs using the BCLs of 300, 250, and 200 ms by introducing S1-S2 via a programmed cardiac stimulator (FIG. 10A).

[6] = test system: anesthetized dogs; assay: Experimental vagotonic AF in anesthetized dogs; format: in vivo, dog
Experimental: Sustained vagotonic AF was generated in anesthetized dogs by introducing two MAP catheters respectively into the right atrium and the left ventricle along with stimulation of the divided bilateral vagal nerves in the neck. […] Ventricular pacing was performed with 2 ms voltage pulses (2.5 Hz, 150% diastolic threshold) when vagal nerves were continuously stimulated. AF was generated by the BCL 100-ms S1 followed by S2, lasting for 10 min. […] The sustained AF could be repeatedly generated and terminated by stopping vagal stimulation. AF incidence and AF duration were recorded before and at different time points (0.5, 1, 1.5, 2, 3, and 4h) after intraduodenal administration of drugs.
AF was induced by S1-S2 stimulation at 100 ms BCL with bilateral vagal stimulation (see Methods & FIG. 12) at certain time points during the 0.5 to 4 h period following intraduodenal administration. AF lasted for 10 min and terminated once vagal stimulation was stopped. No AF occurrence or shortened AF duration during the continuous vagal stimulation were considered to represent prevention of AF.

[7] = HEK293, HEK 293 cells stably expressing Kv1.5, Table 3, read-out: Kv1.5 (IC50)
[8] = HEK 293 cells stably expressing Kv1.5, Table 3, read-out: Kv1.5 (IC50)
[9] = BCL 200 ms, pre-treatment (baseline)
[10] = BCL 250 ms, pre-treatment (baseline)

Chain of hERG channels (Q12809 whole entry, the tested form may be a part): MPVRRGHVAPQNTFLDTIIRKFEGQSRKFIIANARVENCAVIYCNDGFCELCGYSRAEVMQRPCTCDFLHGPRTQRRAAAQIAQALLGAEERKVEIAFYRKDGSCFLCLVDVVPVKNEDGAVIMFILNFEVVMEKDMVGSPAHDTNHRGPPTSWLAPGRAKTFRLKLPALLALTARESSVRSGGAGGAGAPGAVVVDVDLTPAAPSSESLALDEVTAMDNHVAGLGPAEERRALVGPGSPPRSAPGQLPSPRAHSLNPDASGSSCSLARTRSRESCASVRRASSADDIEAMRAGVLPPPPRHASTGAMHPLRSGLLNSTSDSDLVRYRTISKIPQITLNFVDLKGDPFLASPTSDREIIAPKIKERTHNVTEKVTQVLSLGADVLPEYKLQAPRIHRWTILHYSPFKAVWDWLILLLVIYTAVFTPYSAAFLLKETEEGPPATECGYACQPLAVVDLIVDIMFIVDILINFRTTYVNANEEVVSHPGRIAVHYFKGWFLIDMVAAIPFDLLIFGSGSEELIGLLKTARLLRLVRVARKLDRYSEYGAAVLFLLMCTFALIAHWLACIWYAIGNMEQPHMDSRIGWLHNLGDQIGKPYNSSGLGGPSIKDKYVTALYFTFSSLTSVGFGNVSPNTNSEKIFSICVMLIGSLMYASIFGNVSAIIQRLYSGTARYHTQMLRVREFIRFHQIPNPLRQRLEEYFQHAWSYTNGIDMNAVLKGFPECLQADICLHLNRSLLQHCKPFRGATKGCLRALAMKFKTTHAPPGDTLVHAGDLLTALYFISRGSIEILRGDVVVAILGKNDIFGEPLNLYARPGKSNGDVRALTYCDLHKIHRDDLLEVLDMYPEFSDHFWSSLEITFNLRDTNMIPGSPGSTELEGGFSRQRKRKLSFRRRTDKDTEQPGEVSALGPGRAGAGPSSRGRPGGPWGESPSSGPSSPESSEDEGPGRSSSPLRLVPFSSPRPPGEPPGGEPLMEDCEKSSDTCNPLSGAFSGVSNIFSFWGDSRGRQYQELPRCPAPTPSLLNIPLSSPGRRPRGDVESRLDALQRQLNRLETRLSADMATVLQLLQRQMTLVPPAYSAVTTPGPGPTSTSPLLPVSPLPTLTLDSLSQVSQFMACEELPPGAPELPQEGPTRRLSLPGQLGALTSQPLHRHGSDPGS
T1 sequence (P22460 whole entry): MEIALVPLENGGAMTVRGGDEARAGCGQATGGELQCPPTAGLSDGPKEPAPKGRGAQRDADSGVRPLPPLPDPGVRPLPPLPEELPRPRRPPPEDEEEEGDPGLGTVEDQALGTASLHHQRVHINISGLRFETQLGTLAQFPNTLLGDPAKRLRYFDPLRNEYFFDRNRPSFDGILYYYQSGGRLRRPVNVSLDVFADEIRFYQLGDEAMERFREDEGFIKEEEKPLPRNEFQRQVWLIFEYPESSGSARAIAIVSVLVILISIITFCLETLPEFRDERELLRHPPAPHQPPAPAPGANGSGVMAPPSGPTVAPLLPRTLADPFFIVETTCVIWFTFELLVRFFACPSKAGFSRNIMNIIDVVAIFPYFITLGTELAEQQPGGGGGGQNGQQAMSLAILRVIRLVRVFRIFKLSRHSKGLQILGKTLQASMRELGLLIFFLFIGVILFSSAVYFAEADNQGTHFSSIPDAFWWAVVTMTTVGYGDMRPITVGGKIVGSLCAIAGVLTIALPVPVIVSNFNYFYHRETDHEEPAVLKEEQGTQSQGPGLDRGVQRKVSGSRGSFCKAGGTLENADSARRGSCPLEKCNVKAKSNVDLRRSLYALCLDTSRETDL

Nc1ccncc1 [4-AP, reference compound]
rate dependence of APD50, APD75, APD90 prolongation, in words ([1]; 50 μM 4-AP (data not shown)): reverse rate-dependent prolongation
action potential duration, in words ([1]; 50 μM 4-AP, 2 Hz): prolonged APD50 more than APD90

COc1ccc(-c2cc(=O)c3c(O)cc(OC(C)=O)cc3o2)cc1 [A-2-11]
inhibition at 100 µM [2, 7]: < 50%
effect on Kv1.5 compared with acacetin, in words ([2]; comparative study, Table 3): less effect

COc1ccc(-c2cc(=O)c3c(O)cc(OC(=O)c4ccccc4)cc3o2)cc1 [A-2-12]
inhibition at 100 µM [2, 7]: < 50%
effect on Kv1.5 compared with acacetin, in words ([2]; comparative study, Table 3): less effect

COc1ccc(-c2cc(=O)c3c(O)cc(OC)cc3o2)cc1 [A-2-13]
inhibition at 100 µM ([2]; HEK293, read-out: Kv1.5 (IC50, μM)): < 50%
effect on Kv1.5 compared with acacetin, in words ([2]; comparative study, Table 3): less effect

CCOc1cc(O)c2c(=O)cc(-c3ccc(OC)cc3)oc2c1 [A-2-14]
inhibition at 100 µM [2, 7]: < 50%
effect on Kv1.5 compared with acacetin, in words ([2]; comparative study, Table 3): less effect

COc1ccc(C(=O)Oc2cc(O)cc3oc(-c4ccc(OC)cc4)cc(=O)c23)cc1 [A-2]
IC50 [2, 8]: 2.04 µM
ion channel selectivity for Kv1.5 and hERG channels compared with acacetin, in words ([2]; comparative study, Table 3): less ion channel selectivity
IC50 [3]: 4.1 µM

COc1ccc(-c2cc(=O)c3ccccc3o2)cc1 [A-4]
IC50 [2, 8]: 9 µM
effect on Kv1.5 compared with acacetin, in words ([2]; comparative study, Table 3): less effect

COc1ccc(-c2cc(=O)c3cc(Cl)ccc3o2)cc1 [A-5]
IC50 [2, 8]: 23.5 µM
effect on Kv1.5 compared with acacetin, in words ([2]; comparative study, Table 3): less effect
IC50 [3]: 13 µM

COc1ccc(-c2cc(=O)c3cc(C)ccc3o2)cc1 [A-6]
IC50 [2, 8]: 13.7 µM
effect on Kv1.5 compared with acacetin, in words ([2]; comparative study, Table 3): less effect

Oc1cc(O)c2c(c1)O[C@H](c1ccc(O)c(O)c1)[C@@H](O)C2 [A-9]
IC50 [2, 8]: > 100 µM
effect on Kv1.5 compared with acacetin, in words ([2]; comparative study, Table 3): no effects
IC50 [3]: > 100 µM

CC1OC(OCC2OC(Oc3c(-c4ccc(O)c(O)c4)oc4cc(O)cc(O)c4c3=O)C(O)C(O)C2O)C(O)C(O)C1O (stereo not shown) [A-11]
IC50 [2]: > 100 µM
effect on Kv1.5 compared with acacetin, in words ([2]; comparative study, Table 3): no effects
IC50 [3]: > 100 µM

O=c1cc(-c2ccccc2)oc2cc(O)c(O)c(O)c12 [A-12]
IC50 [2, 8]: > 100 µM
effect on Kv1.5 compared with acacetin, in words ([2]; comparative study, Table 3): no effects
IC50 [3]: > 100 µM

C=C[C@H]1C[N@@]2CC[C@H]1C[C@@H]2[C@@H](O)c1ccnc2ccc(OC)cc12 [Quinidine, quinidine]
QTc interval of ECG, in words [4]: prolonged QTc interval
heart rate, in words [4]: slowed heart rate
QTc interval of ECG, in words ([4]; listed as quinidine): significantly increased

CC(C)NCC(O)c1ccc(NS(C)(=O)=O)cc1 (stereo not shown) [Sotalol, sotalol]
left atrial ERP (ms), BCL 200 ms ([5]; BCL 200 ms, 2 h post-treatment): 105.1 ± 5.1 ms
left atrial ERP (ms), BCL 200 ms [5, 9]: 88.8 ± 3.7 ms
right atrial ERP (ms), BCL 200 ms [5, 9]: 88.7 ± 3.9 ms
left atrial ERP (ms), BCL 250 [5, 10]: 94.3 ± 3.1 ms
right atrial ERP (ms), BCL 250 [5, 10]: 96.3 ± 8.3 ms
summarized anti-AF efficacy ([6]; 5 mg/kg intraduodenal, vehicle 0%): 60%
animals in which sustained AF was not observed ([6]; 5 mg/kg intraduodenal, vehicle: sustained AF in 100%): 40%
incidence of AF, in words ([6]; acacetin 2.5, 5, 10 mg/kg, sotalol 5 mg/kg, 1.5-2.5 h after intraduodenal administration): reduced the incidence of AF
